How the values were obtained:
[1] = system: HEI-OC1 cells; experiment: release of mitochondrial Cytc in HEI-OC1 cells with CisPt (flow cytometry); assay type: cell-based; conditions: HEI-OC1 cells, CisPt alone vs pre-incubated with LPT99, flow cytometry
Protocol: Flow cytometry was also used to characterize the effect of LPT99 in the release of mitochondrial Cytc in HEI-OC1 cells in vitro with CisPt prevention.
The effect of LPT99 on proliferation of non-apoptotic cells was studied. A549 cells were cultured in the presence of LPT99 for up to 6 days; the cell number was monitored by flow cytometry, and doubling time was calculated.

[2] = system: rats; experiment: GLP auditory safety study after single IT administration; assay type: in vivo, rat
Protocol: Gross observations were recorded, and selected organs were weighed.

| Compound | release of mitochondrial Cytc [1] | weight-normalized heart weights ([2]; male rats, 400 mg/mL gentamicin, Day 14, vs saline controls) | otoscopic examination of the tympanic membranes (erythema, edema, wounds) ([2]; rat, single IT, Days 1, 7, 14, vs control) | mortalities, clinical abnormalities, body weight, food intake, clinical pathologies ([2]; rat, single bilateral IT 30 μL per ear, 14-day study) |
| --- | --- | --- | --- | --- |
| N.N.[Cl][Pt][Cl] [CisPt, cisplatin, reference compound] | 28%±6.6% | – | – | – |
| gentamicin [reference compound] | – | statistically significant (p≤0.05) increased weight-normalized heart weights | increases in otoscopic scores | no LPT99- or gentamicin-related mortalities |

Source: patent publication US10561736B1, “Apoptosis inhibitor formulations for prevention of hearing loss” (Spiral Therapeutics, Inc., priority 2019, dated 2020)
